Test [1] concerns IL-1β secretion from human whole blood. The experiment in a line: Inhibition of IL-1β secretion from whole blood. The format is cell-based. Particulars: human whole blood diluted 1:2, LPS 5 ng/ml, 18 hours, ELISA. As for the experimental part:
Human blood is freshly drawn from healthy donors and diluted 1:2 in PBS. To 500 μl of diluted blood […] of prediluted test compound in RPMI medium and […] LPS (5 ng/ml final concentration on the plate) are added (LPS, Serotype 0111:B4, Sigma L3012). After stimulation for 18 hours supernatants are collected and assayed for IL-1β levels using the appropriate ELISA kit (R&D systems).
A general note: An ELISA detects its analyte on a solid surface through an enzyme-linked reagent.

A further test deals with rat cortical neurons. The experiment in a line: Hypoxia-induced apoptosis of rat cortical neurons. Type of test: cell-based, Wistar rat. Conditions: Cortical neurone, 95% N2/5% CO2, Cell Death Detection ELISA (DNA fragmentation). Here is the method:
Cortical neurons are dissociated from Wistar rat embryos (E17) by a modification of the procedure of Rogers et al. 1997, Brain Res. Bulletin, 44:131. Briefly, cerebral cortices are isolated aseptically from 15-20 Wistar rat embryos. A cell suspension is prepared by mincing the cerebral cortices and digesting them with papain. Cells are washed with ovomucoid enzyme inhibitor and DNaseI and plated onto Poly-D lysine coated plates in high glucose DMEM containing 10% heat-inactivated fetal calf serum, L-glutamine, penicillin and streptomycin. The yield of neurons is […] per embryo and they are 80-90% viable as assessed by Trypan blue exclusion.
The neurons are cultured in complete medium at 37° C. in a normal atmosphere for 48 hours prior to the hypoxia experiments. For hypoxia, the normal cell medium is replaced by oxygen-depleted serum-free medium. Cells are incubated in an atmosphere of 95% N2/5% CO2 for various lengths of time. Compounds are dissolved in DMSO at 100 mM then diluted in medium and added to the culture from time=0. The level of apoptosis is measured using a Cell Death Detection ELISA kit (Roche) which detects DNA fragmentation. Plates are read at 405 nm. Controls included cells cultured in aerobic conditions in serum-containing medium (+serum) and cells cultured in aerobic conditions in serum-deprived medium (−serum).

The test system of the next test is Jurkat E6.1 cells. The experiment in a line: Anti-Fas induced apoptosis assay. Type of test: cell-based. Conditions: Homo sapiens, anti-Fas antibody CH-11 10 ng/ml, 16-18 hrs, DNA fragmentation. An excerpt: Cellular apoptosis may be induced by the binding of Fas ligand (FasL) to its receptor, CD95 (Fas). CD95 is one of a family of related receptors, known as death receptors, which can trigger apoptosis in cells via activation of the caspase enzyme cascade. The process is initiated by the binding of the adapter molecule FADD/MORT-1 to the cytoplasmic domain of the CD-95 receptor-ligand complex. Caspase-8 then binds FADD and becomes activated, initiating a cascade of events that involve the activation of downstream caspases and subsequent cellular apoptosis. Apoptosis can also be induced in cells expressing CD95 e.g., the Jurkat E6.1 T cell lymphoma cell line, using an antibody, rather than FasL, to crosslink the cell surface CD95. Anti-Fas-induced apoptosis is also triggered via the activation of caspase-8. This provides the basis of a cell based assay to screen compounds for inhibition of the caspase-8-mediated apoptotic pathway.
Jurkat E6.1 cells are cultured in complete medium consisting of RPMI-1640 (Sigma No)+10% foetal calf serum (Gibco BRL No. 10099-141)+2 mM L-glutamine (Sigma No. G-7513). The cells are harvested in log phase of growth. 100 ml of cells at 5-8×10^5 cells/ml are transferred to sterile 50 ml Falcon centrifuge tubes and centrifuged for 5 minutes at 100×g at room temperature. The supernatant is removed and the combined cell pellets resuspended in 25 ml of complete medium. The cells are counted and the density adjusted to 2×10^6 cells/ml with complete medium.
The test compound is dissolved in dimethyl sulfoxide (DMSO)(Sigma No. D-2650) to give a 100 mM stock solution. This is diluted to 400 μM in complete medium, then serially diluted in a 96-well plate prior to addition to the cell assay plate.
100 μl of the cell suspension ([…]) is added to each well of a sterile 96-well round-bottomed cluster plate (Costar No. 3790). 50 μl of compound solution at the appropriate dilution and 50 μl of anti-Fas antibody, clone CH-11 (Upstate, Cat No. 1 544 675) at a final concentration of 10 ng/ml, are added to the wells. Control wells are set up minus antibody and minus compound but with a serial dilution of DMSO as vehicle control. The plates are incubated for 16-18 hrs at 37° C. in 5% CO2 and 95% humidity.
Apoptosis of the cells is measured by the quantitation of DNA fragmentation using a ‘Cell Death Detection Assay’ from Roche diagnostics, No. 1544 675. After incubation for 16-18 hrs the assay plates are centrifuged at 100×g at room temperature for 5 minutes. 150 μl of the supernatant are removed and replaced by 150 μl of fresh complete medium. The cells are then harvested and 200 μl of the lysis buffer supplied in the assay kit are added to each well. The cells are triturated to ensure complete lysis and incubated for 30 minutes at 4° C. The plates are then centrifuged at 1900×g for 10 minutes and the supernatants diluted 1:20 in the incubation buffer provided. 100 μl of this solution is then assayed according to the manufacturer's instructions supplied with the kit. OD405 nm is measured 20 minutes after addition of the final substrate in a SPECTRAmax Plus plate reader (Molecular Devices). OD405 nm is plotted versus compound concentration and the IC50 values for the compounds are calculated using the curve-fitting program SOFTmax Pro (Molecular Devices) using the four parameter fit option.

For 18 molecules, IC50 results are on record in patent US7960415B2, “Caspase inhibitors and uses thereof” (Vertex Pharmaceutical Incoporated, priority 2003, dated 2011).

Usually IC50 stands for the concentration at which inhibition is half-maximal. Read a high IC50 as weaker potency.

Take `CC[C@@H](C(=O)N[C@@H](CC(=O)O)C(=O)COc1c(F)c(F)cc(F)c1F)n1cccc(NC(C)=O)c1=O` [Compound 1, (S,S)-3-[2-(3-Acetylamino-2-oxo-2H-pyridin-1-yl)-butyrylamino]-4-oxo-5-(2,3,5,6-tetrafluoro-phenoxy)-pentanoic acid]: the IC50 in test [1] is under 500 nM; in the test with rat cortical neurons, 1000 to 10000 nM; in the test with Jurkat E6.1 cells, under 500 nM.
`CCC(=O)Nc1cccn([C@@H](CC)C(=O)N[C@@H](CC(=O)O)C(=O)COc2c(F)c(F)cc(F)c2F)c1=O` [Compound 2, (S,S)-4-Oxo-3-[2-(2-oxo-3-propionylamino-2H-pyridin-1-yl)-butyrylamino]-5-(2,3,5,6-tetrafluoro-phenoxy)-pentanoic acid]: the figures for the IC50 (in test [1]; with rat cortical neurons; in the test with Jurkat E6.1 cells) were under 500 nM, under 1000 nM and under 500 nM, respectively.
In the case of `CC[C@@H](C(=O)N[C@@H](CC(=O)O)C(=O)COc1c(F)c(F)cc(F)c1F)n1cccc(NC(=O)N2CCCC2)c1=O` [Compound 16, (S,S)-4-Oxo-3-(2-{2-oxo-3-[(pyrrolidine-1-carbonyl)-amino]-2H-pyridin-1-yl}-butyrylamino)-5-(2,3,5,6-tetrafluoro-phenoxy)-pentanoic acid], the concentration for half-maximal inhibition (IC50) fell in the range of 500 to 5000 nM in test [1] and 1000 to 10000 nM in the test on rat cortical neurons.
The matching figures for `CC[C@@H](C(=O)N[C@@H](CC(=O)O)C(=O)COc1c(F)c(F)cc(F)c1F)n1cccc(NS(=O)(=O)C(C)C)c1=O` [Compound 20, (S,S)-4-Oxo-3-{2-[2-oxo-3-(propane-2-sulfonylamino)-2H-pyridin-1-yl]-butyrylamino}-5-(2,3,5,6-tetrafluoro-phenoxy)-pentanoic acid]: 500 to 5000 nM and under 1000 nM.
The matching figures for `CC[C@@H](C(=O)N[C@@H](CC(=O)O)C(=O)COc1c(F)c(F)cc(F)c1F)n1cccc(NS(=O)(=O)c2ccccc2)c1=O` [Compound 21, (S,S)-3-[2-(3-Benzenesulfonylamino-2-oxo-2H-pyridin-1-yl)-butyrylamino]-4-oxo-5-(2,3,5,6-tetrafluoro-phenoxy)-pentanoic acid]: 500 to 5000 nM and 1000 to 10000 nM.
In the test on Jurkat E6.1 cells, `CCC(=O)Nc1cccn([C@@H](C)C(=O)NC(CC(=O)O)C(=O)CF)c1=O` (stereo partly drawn) [Compound 25, (S)-5-Fluoro-4-oxo-3-[2-(2-oxo-3-propionylamino-2H-pyridin-1-yl)-propionylamino]-pentanoic acid] gave a concentration for half-maximal inhibition (IC50) of under 500 nM.
On the same count and under the same terms, to `C[C@@H](C(=O)NC(CC(=O)O)C(=O)CF)n1cccc(NC(=O)c2ccccc2)c1=O` (stereo partly drawn) [Compound 26, (S)-3-[2-(3-Benzoylamino-2-oxo-2H-pyridin-1-yl)-propionylamino]-5-fluoro-4-oxo-pentanoic acid] belongs 500 to 2000 nM.
On the same count and under the same terms, to `C[C@@H](C(=O)NC(CC(=O)O)C(=O)CF)n1cccc(NC(=O)c2c(Cl)cccc2Cl)c1=O` (stereo partly drawn) [Compound 27, (S)-3-{2-[3-(2,6-Dichloro-benzoylamino)-2-oxo-2H-pyridin-1-yl]-propionylamino}-5-fluoro-4-oxo-pentanoic acid] belongs under 500 nM.
On to `C[C@@H](C(=O)NC(CC(=O)O)C(=O)CF)n1cccc(NC(=O)Cc2ccccc2)c1=O` (stereo partly drawn) [Compound 28, (S)-5-Fluoro-4-oxo-3-[2-(2-oxo-3-phenylacetylamino-2H-pyridin-1-yl)-propionylamino]-pentanoic acid], for which the 50% inhibitory concentration (IC50) in test [1] fell in the range of 500 to 5000 nM; with Jurkat E6.1 cells, 500 to 2000 nM.
Consider `CC[C@@H](C(=O)NC(CC(=O)O)C(=O)CF)n1cccc(NC(=O)c2ccccc2)c1=O` (stereo partly drawn) [Compound 30, (S)-3-[2-(3-Benzoylamino-2-oxo-2H-pyridin-1-yl)-butyrylamino]-5-fluoro-4-oxo-pentanoic acid], for which the IC50 is 1000 to 10000 nM with rat cortical neurons and under 500 nM in the test with Jurkat E6.1 cells.
The matching figures for `CC[C@@H](C(=O)NC(CC(=O)O)C(=O)CF)n1cccc(NC(=O)c2c(Cl)cccc2Cl)c1=O` (stereo partly drawn) [Compound 31, (S)-3-{2-[3-(2,6-Dichloro-benzoylamino)-2-oxo-2H-pyridin-1-yl]-butyrylamino}-5-fluoro-4-oxo-pentanoic acid]: 1000 to 10000 nM and under 500 nM.
For `CC[C@@H](C(=O)NC(CC(=O)O)C(=O)CF)n1cccc(NC(=O)c2ccccn2)c1=O` (stereo partly drawn) [Compound 32, (S)-5-Fluoro-4-oxo-3-(2-{2-oxo-3-[(pyridine-2-carbonyl)-amino]-2H-pyridin-1-yl}-butyrylamino)-pentanoic acid], the IC50 in the test on Jurkat E6.1 cells is under 500 nM.
The same measure, in the same setting: to `CC[C@@H](C(=O)NC(CC(=O)O)C(=O)CF)n1cccc(NC(=O)Cc2ccccc2)c1=O` (stereo partly drawn) [Compound 33, (S)-5-Fluoro-4-oxo-3-[2-(2-oxo-3-phenylacetylamino-2H-pyridin-1-yl)-butyrylamino]-pentanoic acid] belongs under 500 nM.
With `CC[C@@H](C(=O)NC(CC(=O)O)C(=O)CF)n1cccc(NC(=O)Cc2cccc(C)c2)c1=O` (stereo partly drawn) [Compound 34, (S)-5-Fluoro-4-oxo-3-{2-[2-oxo-3-(2-m-tolyl-acetylamino)-2H-pyridin-1-yl]-butyrylamino}-pentanoic acid], the figures for the IC50 with rat cortical neurons and with Jurkat E6.1 cells were 1000 to 10000 nM and under 500 nM, respectively.
With `CCC[C@@H](C(=O)NC(CC(=O)O)C(=O)CF)n1cccc(NC(=O)CC)c1=O` (stereo partly drawn) [Compound 35, (S)-5-Fluoro-4-oxo-3-[2-(2-oxo-3-propionylamino-2H-pyridin-1-yl)-pentanoylamino]-pentanoic acid], the IC50 in the test on rat cortical neurons is 1000 to 10000 nM; in the test on Jurkat E6.1 cells, under 500 nM.
For `CC[C@@H](C(=O)NC(CC(=O)O)C(=O)CF)n1cc(C)cc(NC(=O)Cc2ccccc2)c1=O` (stereo partly drawn) [Compound 37, (S)-5-Fluoro-3-[2-(5-methyl-2-oxo-3-phenylacetylamino-2H-pyridin-1-yl)-butyrylamino]-4-oxo-pentanoic acid], the IC50 in the test with rat cortical neurons is 1000 to 10000 nM; with Jurkat E6.1 cells, under 500 nM.
As to `CC[C@@H](C(=O)N[C@@H](CC(=O)O)C(=O)COc1c(F)c(F)cc(F)c1F)n1cccc(Nc2nccs2)c1=O` [Compound 38, (S,S)-4-Oxo-3-{2-[2-oxo-3-(thiazol-2-ylamino)-2H-pyridin-1-yl]-butyrylamino}-5-(2,3,5,6-tetrafluoro-phenoxy)-pentanoic acid], the IC50 in test [1] is 500 to 5000 nM; in the test on rat cortical neurons, under 1000 nM.
On the same counts, the results for `CCCNc1cccn([C@@H](CC)C(=O)N[C@@H](CC(=O)O)C(=O)COc2c(F)c(F)cc(F)c2F)c1=O` [Compound 39, (S,S)-4-Oxo-3-[2-(2-oxo-3-propylamino-2H-pyridin-1-yl)-butyrylamino]-5-(2,3,5,6-tetrafluoro-phenoxy)-pentanoic acid] are 500 to 5000 nM and under 1000 nM.
